The text below walks through data of patent US9657092B2, “S100A4 antibodies and therapeutic uses thereof” (LYKERA BIOMED SA, priority 2010, dated 2017).

For the test, the system named is MiaPACA-2 cells. Put plainly: Cytotoxic effect measured by hexosaminidase activity. The format is cell-based. The following applies: Homo sapiens, MIA PaCa-2; gemcitabine alone, 72 h; read-out: EC50 cell viability. Here is the method: Briefly, MiaPACA-2 cells were plated onto 96-well cell culture plates (5×10^3 cells/well) in 50 μl of DMEM medium. […] After removing the culture media cells were washed once with PBS. Sixty microliters of substrate solution (p-nitrophenol-N-acetyl-beta-D-glucosamide 7.5 mM, sodium citrate 0.1 M, 0.25% Triton X-100, pH 5.0) was added to each well and plates were incubated at 37° C. for 2 hours; after this incubation time, a bright yellow appears and plates were developed by adding 90 μl of developer solution (Glycine 50 mM, EDTA 5 mM, pH 10.4), and the absorbance at 450 nm was measured by using a multi-well scanning spectrophotometer. Data analysis was done normalizing the results with the negative control (untreated cells) which were considered as 100% of viability.
Curves were adjusted using a sigmoidal dose-response (variable slope) equation, and EC50 values were obtained from the equation: Y=Bottom+(Top−Bottom)/(1+10^((Log EC50−X)*HillSlope)) where X is the logarithm of concentration and Y is the response. Y starts at Bottom and goes to Top with a sigmoid shape.

A word on the EC50: it is the concentration at which the effect is half-maximal.

With `Nc1ccn([C@@H]2O[C@H](CO)[C@@H](O)C2(F)F)c(=O)n1` [gemcitabine], the EC50 stood at 8.36 nM.
